Values of other authors in patent US20040132743A1 (DR. REDDY'S LABORATORIES LIMITED DR. REDDY'S LABORATORIES, …, priority 2002, published 2004).

Assays:
[1] = studies in patients
[2] = in vivo
[3] = amorphous form compared with crystalline form

Compound: O=C(O)COCCN1CCN(C(c2ccccc2)c2ccc(Cl)cc2)CC1 (racemic) [cetirizine]
- symptomatic relief of seasonal allergies [1]: safe and effective, symptomatic relief of seasonal allergies

Compound: O=C(O)COCCN1CCN([C@H](c2ccccc2)c2ccc(Cl)cc2)CC1 [Levocetirizine]
- side effects on the central nervous system [2]: free from side effects on the central nervous system

Compound: CO/N=C(\C(=O)N[C@@H]1C(=O)N2C(C(=O)OC(C)OC(C)=O)=C(COC(N)=O)CS[C@H]12)c1ccco1 (stereo partly drawn) [amorphous form of cefuroxime axetil, cefuroxime axetil]
- bioavailability [3]: higher bioavailability than its crystalline form
